Data from US11911406B2, “PH-responsive polymer-drug conjugates for enhanced antibacterial efficacy” (priority 2020, dated 2024).

Tests used:
P. aeruginosa ATCC 27853 [1] = assay: Checkerboard assay, FIC index; assay type: cell-based
Procedure: (§1) Fractional inhibitory concentration (FIC) measurement. The synergy between the cationic polymer and streptomycin was assessed by checkerboard assays. The two antibacterial components were mixed in a 96-well plate with serial two-dimensional dilutions. Bacteria were inoculated in each well of the plate and their growth, reflected by the OD600 value, were monitored. The synergy effect was evaluated by calculating the FIC index according to the formula below:
(§2) [formula] MICA^Comb and MICB^Comb indicate the MICs of the two components in combination. The interactions between the two components are defined according to standard criteria of considering FIC≤0.5 as synergistic; 0.5<FIC≤1 as additive; 1<FIC≤4 as indifference; and FIC>4 as antagonism.

[2] = system: methicillin-resistant S. aureus (MRSA, ATCC 33591); assay: Checkerboard assay, FIC index; assay type: cell-based
Procedure: as §1, §2

E. coli ATCC 25922 [3] = assay: Checkerboard assay, FIC index; assay type: cell-based
Procedure: as §1, §2

[4] = system: E. coli, MRSA and P. aeruginosa; assay: Scanning electron microscopy (SEM) observation; assay type: cell-based; settings: pH 6.0, 3 h
Procedure: Scanning electron microscopy (SEM) observation. Bacteria suspensions were prepared as above and treated with PDC at different pH for 3 h, washed with saline and fixed with 2.5% glutaraldehyde at 4° C. overnight. The samples were washed with Milli-Q water and dehydrated with a series of graded ethanol solutions (50%, 75%, 90%, 100%, each for 5 min). After drying for 1 day, the samples were coated with platinum and observed by SEM (Zeiss/LEO 1530).

E. coli ATCC 25922 [5] = assay: Evaluation of antibiotic resistance development (serial passaging); assay type: cell-based; settings: sub-lethal dose (0.5 MIC)
Procedure: Evaluation of antibiotic resistance development. E. coli ATCC 25922 was employed to study the drug resistance development under sublethal dose treatments of free streptomycin, cationic polymer or the PDC. During a serial of passages, the MIC of each treatment was measured by the broth microdilution method as described above, and the bacteria were exposed to ½MIC at that particular passage. MIC for each passage was recorded and normalized to that of the first passage to determine the drug resistance enhancement.

M. smegmatis (MC^2 155) = assay: MIC, broth microdilution; assay type: cell-based
Procedure: (§3) Bacterial strains. S. aureus Newman was kindly provided by Prof Douglas Weibel; E. coli ATCC25922, S. aureus ATCC 33591 and P. aeruginosa ATCC 27853 were kindly donated by Prof. David Andes. E. coli DH5a was purchased from Thermo Fisher. The bacteria above were grown in Mueller Hinton Broth (MHB) media (Criterion, Santa Maria, Calif., USA). M. smegmatis mc^2155 strain was kindly donated by Prof. Adel M. Talaat, and was grown in Middlebrook 7H9 broth (HiMedia, West Chester, Pa., USA).
(§4) Minimal inhibitory concentration (MIC) measurements. The MIC of the different treatments on various bacteria strains was determined using the broth microdilution method. Briefly, 100 μL of the respective broth media containing serial twofold dilutions of each compound was placed into a 96-well tissue culture plate. Each bacterial strain was taken from an exponentially growing culture and diluted to 5×10^6 CFU/mL. 10 μL of such microbial suspension was inoculated in each well of the plate, resulting in a final bacteria concentration of approximately 5×10^5 CFU/mL. The bacteria were cultured at 37° C. for 24 h and their growth were observed by reading the optical density (OD) at 600 nm. The MIC was determined as the treatment concentration at which no microbial growth was observed. Broth containing microbial cells alone was used as a positive control and broth without bacteria inoculation was used as a negative control. Each test was carried out in 3 replicates.

[6] = system: S. aureus (MRSA ATCC33591); assay: MIC, broth microdilution; assay type: cell-based
Procedure: as §3, §4

S. aureus (Newman) = assay: MIC, broth microdilution; assay type: cell-based
Procedure: as §3, §4

E. coli (ATCC 25922) = assay: MIC, broth microdilution; assay type: cell-based
Procedure: as §3, §4

E. coli (DH5 alpha) = assay: MIC, broth microdilution; assay type: cell-based
Procedure: as §3, §4

[7] = system: P. aeruginosa (ATCC 27853); assay: MIC, broth microdilution; assay type: cell-based
Procedure: as §3, §4

[8] = system: HEK 293 human embryonic kidney cells; assay: Cell viability test (MTT cytotoxicity); assay type: cell-based; settings: 48 h, row marked pH 7.4
Procedure: Cell viability test. Cytotoxicity of different components was tested through MTT assays. HEK 293 human embryonic kidney cells were seeded onto a 96-well plate (1×10^4 cells/well) and cultured overnight. The cells were then treated with various polymers or PDCs with serial dilutions for 48 h and their viability was measured by a standard MTT assay. Data were collected by monitoring the difference between the absorbance at 560 nm and 650 nm using a GloMax-Multi Microplate Multimode Reader (Promega, Wis., USA).

P. aeruginosa ATCC 27853 [9] = assay: Mouse lung infection model; assay type: in vivo, ICR mice
Procedure: Mouse lung infection model. […] In another experiment of monitoring the mice survival for the lung infection model, the P. aeruginosa infected mice were given 2 treatments (1 h and 8 h after the infection) and their survival was observed using Kaplan-Meier curves (n=5).

[10] = system: P. aeruginosa in Raw 264.7 macrophage; assay: Antibacterial activity for intracellular infection; assay type: cell-based; settings: Raw 264.7 infected with P. aeruginosa, pH 7.4 and 6.0, 1 day
Procedure: (§5) Antibacterial activity for intracellular infection. The antibacterial activity for intracellular infection was tested following the previous report. Briefly, macrophage Raw 264.7 cells were seeded in 96-well plate at a density of 1×10^4 cell/swell overnight and infected with MRSA or P. aeruginosa at a ratio of 10-20 bacteria per macrophage in FBS free RPMI 1640 medium. After 3 h incubation, the cells were washed and cultured in 1640 medium containing 10% FBS and 50 μg/mL gentamycin for one day to prevent the growth of extracellular bacteria. Then the macrophages were treated with free streptomycin or PDC for another day and lysed with Milli-Q water supplemented with 0.1% Triton-X. The cell lysates were serially diluted and the CFU in each well was determined by plating on MHB agar plates.

[11] = system: MRSA in Raw 264.7 macrophage; assay: Antibacterial activity for intracellular infection; assay type: cell-based; settings: Raw 264.7 infected with S. aureus, pH 7.4 and 6.0, 1 day
Procedure: as §5

Which results are given for “Hex-Cys-Cys-DET-strep-DMA [Neutralized PDC]”?
FICI of the two components in the PDC (tethered together) (P. aeruginosa ATCC 27853 [1]): 0.306; FICI of the two components in the PDC (tethered together) [2]: 0.475; FICI of the two components in the PDC (tethered together) (E. coli ATCC 25922 [3]): 0.362; bacterial membrane morphology (SEM), in words [4]: severe membrane disruption and deformation; increase in MIC after 20 passages (E. coli ATCC 25922 [5]): 2 fold; MIC M. smegmatis (MC^2 155) (M. smegmatis (MC^2 155); pH 6.0): 2.5 µg/mL; MIC M. smegmatis (MC^2 155) (M. smegmatis (MC^2 155); pH 7.4): 20 µg/mL; MIC S. aureus (MRSA ATCC33591) ([6]; pH 6.0): 40 µg/mL; MIC S. aureus (MRSA ATCC33591) ([6]; pH 7.4): 160 µg/mL; MIC S. aureus (Newman) (S. aureus (Newman); pH 6.0): 20 µg/mL; MIC S. aureus (Newman) (S. aureus (Newman); pH 7.4): 80 µg/mL; MIC E. coli (ATCC 25922) (E. coli (ATCC 25922); pH 6.0): 20 µg/mL; MIC E. coli (ATCC 25922) (E. coli (ATCC 25922); pH 7.4): 80 µg/mL; MIC E. coli (DH5 alpha) (E. coli (DH5 alpha); pH 6.0): 20 µg/mL; MIC E. coli (DH5 alpha) (E. coli (DH5 alpha); pH 7.4): 80 µg/mL; MIC P. aeruginosa (ATCC 27853) ([7]; pH 6.0): 40 µg/mL; MIC P. aeruginosa (ATCC 27853) ([7]; pH 7.4): 160 µg/mL; HEK293 IC50 [8]: >2000 µg/mL; survival, in words (P. aeruginosa ATCC 27853 [9]; 2 i.v. injections (1 h and 8 h after the infection)): all of the PDC treated mice survived; bacterial burden in lungs, in words (P. aeruginosa ATCC 27853 [9]; single i.v. injection 1 h after infection, CFU per lung at 12 h): lowest bacterial burden in their lungs; antibacterial efficacy on intracellular bacteria (CFU), in words [10]: enhanced the antibacterial efficacy; antibacterial efficacy on intracellular bacteria (CFU), in words [11]: enhanced the antibacterial efficacy
